Test results taken from PMC3723905, “Glycogen Phosphorylase Inhibitor N-(3,5-Dimethyl-Benzoyl)-N’-(β-D-Glucopyranosyl)Urea Improves Glucose Tolerance under Normoglycemic and Diabetic Conditions and Rearranges Hepatic Metabolism” (PLoS ONE, 2013).

Target: T1, rabbit muscle glycogen phosphorylase (Oryctolagus cuniculus, UniProt P00489)
T1 construct: gene PYGM
T1 sequence (P00489 2-843): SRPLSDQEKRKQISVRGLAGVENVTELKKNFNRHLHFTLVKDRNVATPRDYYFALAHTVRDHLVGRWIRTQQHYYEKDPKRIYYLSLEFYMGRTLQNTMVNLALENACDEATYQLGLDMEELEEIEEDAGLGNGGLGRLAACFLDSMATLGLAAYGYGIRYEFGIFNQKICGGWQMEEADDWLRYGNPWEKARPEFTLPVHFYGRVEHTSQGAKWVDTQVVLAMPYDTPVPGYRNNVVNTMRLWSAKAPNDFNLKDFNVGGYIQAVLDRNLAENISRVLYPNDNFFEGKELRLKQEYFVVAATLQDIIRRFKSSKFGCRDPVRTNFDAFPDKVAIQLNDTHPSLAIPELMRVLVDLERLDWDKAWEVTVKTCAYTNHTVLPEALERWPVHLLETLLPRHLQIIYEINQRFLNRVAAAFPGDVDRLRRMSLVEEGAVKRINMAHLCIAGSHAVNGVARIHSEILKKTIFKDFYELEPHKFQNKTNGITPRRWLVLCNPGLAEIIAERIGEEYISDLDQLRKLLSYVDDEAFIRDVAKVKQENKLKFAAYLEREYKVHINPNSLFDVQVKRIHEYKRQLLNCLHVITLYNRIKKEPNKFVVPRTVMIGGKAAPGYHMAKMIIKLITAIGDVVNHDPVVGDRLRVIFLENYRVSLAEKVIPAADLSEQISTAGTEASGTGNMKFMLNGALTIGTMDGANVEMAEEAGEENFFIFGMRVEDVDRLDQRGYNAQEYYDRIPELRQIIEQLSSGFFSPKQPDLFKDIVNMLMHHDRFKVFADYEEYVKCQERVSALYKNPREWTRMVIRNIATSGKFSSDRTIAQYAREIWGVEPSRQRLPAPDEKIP
Assay: enzyme kinetics on purified rabbit muscle glycogen phosphorylase
Type: biochemical

Ki: 930 ± 50 nM
SMILES: Cc1cc(C)cc(C(=O)NC(=O)N[C@@H]2O[C@H](CO)[C@@H](O)[C@H](O)[C@H]2O)c1 [compound 4, N-(3,5-dimethyl-benzoyl)-N’-(β-D-glucopyranosyl)urea]
